Laboratory results taken from patent publication US20100105748A1, “METHODS AND COMPOSITIONS FOR TREATMENT OF DRUG ADDICTION” (priority 2007, published 2010).
Entries after “also recorded” stand apart in the source; their conditions may differ. Where a name gives a salt, the structure may show the parent alone.

Legend:
C57BL6/J wild type mice = test: Elevated plus maze (EPM), cocaine-induced anxiety, wild type C57BL6/J mice; format: in vivo
Description: Behavioral testing The EPM apparatus consisted of two open arms and two enclosed arms arranged in a plus orientation. The arms were elevated 30 inches above the floor, with each arm projecting 12 inches from the center. Because rodents naturally prefer dark, enclosed compartments, a greater willingness to explore the open, well-lit arms is believed to represent a decrease in the animal's anxiety. […]
In all experiments, cocaine was injected 20 minutes prior to behavioral testing as described by Yang and colleagues (Yang et al., (1992) Pharmacol. Biochem. & Behavior 41: 643-650). […] Videotapes were later scored by an observer who was blind to genotype and treatment group. The measure used for analysis was the percentage of time spent exploring the open arms, which was calculated by dividing the time spent in the open arms by the combined time spent in open and closed arms. […]
Entry into an arm of the plus maze was defined as the animal placing all four paws in that particular compartment of the apparatus. […] Mice were excluded from data analysis for any of the following reasons: if they jumped or fell off the maze after test had begun, if they had […] a seizure while on the testing apparatus, or if their open arm time was detected as an outlier using Grubb's test. […]

Dbh +/- and Dbh -/- mice = test: Elevated plus maze (EPM), cocaine-induced anxiety, Dbh mice; format: in vivo; settings: for percent open arm time in EPM after cocaine (cocaine-induced anxiety): antagonist i.p. 10 min prior to cocaine 10 mg/kg i.p., propranolol 5, prazosin 0.5, yohimbine 2.5 mg/kg; for percent open time in EPM, antagonist alone: same doses, no cocaine, tested 20 minutes later, vs saline-treated; for percent open arm time in EPM after cocaine: disulfuram 3x200 mg/kg i.p. two hours apart, cocaine 10 mg/kg i.p. 20 min before test
Description: Male and female Dbh +/− and −/− mice (aged 2 to 5 months) were individually housed on a reversed light cycle (lights on at 19:00, lights off at 7:00), and were allowed a minimum of two weeks to habituate to the new lighting conditions after moving from normal light cycle (lights on at 7:00, lights off at 19:00). Food and water were available ad libitum throughout the course of the study. Data from male and female mice were combined, since there were no detectable gender differences. Dbh mice were generated as described (15) and maintained on a mixed C57Bl6/J and 129SvEv background. Dbh +/− mice were used as controls, because they have normal brain catecholamine levels and are behaviorally identical to wild-type (Dbh +/+) mice (14-16). Three-month old male and female C57BL6/J mice (Jackson Labs, Bar Harbor, […].) were also used to generalize the findings from these experiments to a different strain of wild-type mouse. Housing, handling, and testing conditions for these animals were identical to those used in experiments with Dbh +/− mice.
Behavioral testing The EPM apparatus consisted of two open arms and two enclosed arms arranged in a plus orientation. The arms were elevated 30 inches above the floor, with each arm projecting 12 inches from the center. Because rodents naturally prefer dark, enclosed compartments, a greater willingness to explore the open, well-lit arms is believed to represent a decrease in the animal's anxiety. This interpretation has been validated by the efficacy of known anxiolytic and anxiogenic treatments in this paradigm (Paine et al., (2002) Behavioural Pharmacol. 13: […]; Gorman & Dunn (1993) Pharmacol. Biochem. & Behavior 45: 1-7; Pellow et al., (1985) J. Neurosci. Methods 14: 149-167; Johnston & File (1988) Pharmacol. Biochem. & Behavior 32: 151-156).
In all experiments, cocaine was injected 20 minutes prior to behavioral testing as described by Yang and colleagues (Yang et al., (1992) Pharmacol. Biochem. & Behavior 41: 643-650). To begin each test, mice were placed in the EPM facing one of the open arms and allowed to freely explore the apparatus for five minutes, during which time their behavior was videotaped. Videotapes were later scored by an observer who was blind to genotype and treatment group. The measure used for analysis was the percentage of time spent exploring the open arms, which was calculated by dividing the time spent in the open arms by the combined time spent in open and closed arms. Because some drug treatments and genetic manipulations alter overall locomotor activity, it was important to use this percentage measurement as the dependent variable for analysis (Pellow et al., (1985) J. Neurosci. Methods 14: 149-167).
Entry into an arm of the plus maze was defined as the animal placing all four paws in that particular compartment of the apparatus. All tests were run during the dark cycle, between 14:00 and 18:00. Mice were excluded from data analysis for any of the following reasons: if they jumped or fell off the maze after test had begun, if they had […] a seizure while on the testing apparatus, or if their open arm time was detected as an outlier using Grubb's test. Of 253 total mice tested, 10 were excluded from data analysis. Data were analyzed using independent samples t-tests, one-way ANOVA followed by Dunnett's post-hoc tests, or two-way ANOVA followed by Bonferroni post-hoc tests using Prism 4.0 for Macintosh. […]
This dosing regimen is known to decrease NE by ˜70% in the mouse brain (Bourdelat-Parks et al., (2005) Psychopharmacol. 183(1): 72-80). Mice received cocaine (10 mg/kg, i.p. at 10 ml/kg, dissolved in 0.9% saline) or saline two hours after the final pretreatment injection, and behavioral testing took place 20 minutes later, as described above. […]

mice = test: Cocaine-induced locomotion (ambulations in activity chambers); format: in vivo
Description: Locomotor activity measurement: Experiments were conducted in an isolated behavior room between 1000 and 1600 hrs. Ambulations (consecutive beam breaks) were measured in transparent plexiglass cages (40×20×20 cm^3) placed into a rack with seven infrared photobeams spaced 5 cm apart, each end beam 5 cm from the cage wall (San Diego Instruments Inc., LaJolla, Calif.). Mice were placed in the activity chambers for 4 hr, injected with cocaine (5, 10, or 20 mg/kg i.p.; Sigma-Aldrich, St Louis, Mo.), and ambulations were recorded for an additional 2 hr. Data were analyzed by ANOVA followed by Bonferroni post-hoc tests. For the antagonist studies, saline, the 5-HT1A antagonist WAY100635 (0.03 mg/kg), the 5-HT2 antagonist ketanserin (0.3 mg/kg), the D1 antagonist SCH23390 (0.03 mg/kg), or the D2 antagonist eticlopride were injected i.p. 30 min prior to cocaine (20 mg/kg). […] All drugs were purchased from Sigma-Aldrich (St Louis, Mo.).
Mice were implanted with minipumps for delivering either vehicle (50% DMSO, 0.9% NaCl or nepicastat (10 or 50 mg/kg/d). 3 weeks later, the mice were put in activity chambers, allowed to acclimate for 4 hrs, then injected with cocaine (10 mg/kg, i.p.) and ambulations measured for 2 additional hours, as shown in FIG. 8 (N=6 per group).
Two hours later, the mice were put in activity chambers, allowed to acclimate for 4 hrs, injected with cocaine (20 mg/kg, i.p.) and ambulations measured for 2 additional hours. (FIG. 9) (N=8 per group).

animal models = settings: cited from earlier work
rats = rats / rodents; cited from earlier work
DBH [1] = target: T1, DBH (Homo sapiens, UniProt P09172); settings: cited from earlier work
T1 sequence (P09172 1-617): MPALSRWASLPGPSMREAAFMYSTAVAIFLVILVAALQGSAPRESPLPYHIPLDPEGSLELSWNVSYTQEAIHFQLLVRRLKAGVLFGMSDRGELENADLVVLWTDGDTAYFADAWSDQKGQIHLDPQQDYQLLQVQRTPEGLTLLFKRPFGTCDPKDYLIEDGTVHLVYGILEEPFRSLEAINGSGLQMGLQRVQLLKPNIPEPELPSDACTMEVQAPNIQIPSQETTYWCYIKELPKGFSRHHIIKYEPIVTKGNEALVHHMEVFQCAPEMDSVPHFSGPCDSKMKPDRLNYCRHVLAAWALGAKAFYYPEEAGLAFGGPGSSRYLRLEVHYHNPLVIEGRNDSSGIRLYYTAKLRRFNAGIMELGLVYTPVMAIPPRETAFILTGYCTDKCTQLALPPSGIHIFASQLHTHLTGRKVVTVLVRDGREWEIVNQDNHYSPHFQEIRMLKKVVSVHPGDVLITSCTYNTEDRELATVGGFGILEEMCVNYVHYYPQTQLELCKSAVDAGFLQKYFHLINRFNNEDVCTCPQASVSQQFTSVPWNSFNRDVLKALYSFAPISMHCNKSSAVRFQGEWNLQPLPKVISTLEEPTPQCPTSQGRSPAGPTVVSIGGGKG

DBH [2] = target: T1, DBH; parameters: host or cells: human subjects, in vivo; settings: humans; cited from earlier work
DBH [3] = target: T2, DBH (Mus musculus, UniProt Q64237); settings: three injections of 200 mg/kg i.p. spaced two hours apart; cited from earlier work
T2 construct: host or cells: peripheral and central tissues of animals, in vivo
T2 sequence (Q64237 1-622): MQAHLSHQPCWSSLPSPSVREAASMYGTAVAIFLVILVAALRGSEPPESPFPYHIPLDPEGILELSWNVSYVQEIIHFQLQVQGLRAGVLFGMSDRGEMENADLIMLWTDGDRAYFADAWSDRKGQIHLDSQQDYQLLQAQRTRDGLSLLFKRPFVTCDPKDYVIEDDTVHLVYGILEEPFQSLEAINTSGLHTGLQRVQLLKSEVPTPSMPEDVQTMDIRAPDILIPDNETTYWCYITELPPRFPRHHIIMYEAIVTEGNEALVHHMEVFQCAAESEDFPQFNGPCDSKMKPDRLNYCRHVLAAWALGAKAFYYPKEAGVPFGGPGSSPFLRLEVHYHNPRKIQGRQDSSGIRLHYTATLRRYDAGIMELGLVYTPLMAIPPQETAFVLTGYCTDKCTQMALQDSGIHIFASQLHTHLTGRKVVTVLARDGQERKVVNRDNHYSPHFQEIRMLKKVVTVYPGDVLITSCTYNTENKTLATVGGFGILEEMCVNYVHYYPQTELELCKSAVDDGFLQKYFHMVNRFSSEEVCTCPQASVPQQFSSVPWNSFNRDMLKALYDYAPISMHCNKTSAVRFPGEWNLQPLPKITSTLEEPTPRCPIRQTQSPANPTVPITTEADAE

DBH [4] = settings: animals; cited from earlier work

## CC(C)NCC(O)COc1cccc2ccccc12 (stereo not drawn) [propranolol]
C57BL6/J wild type mice; propranolol 5 mg/kg i.p. 10 min prior to cocaine 20 mg/kg i.p.
  percent open arm time in EPM after cocaine (cocaine-induced anxiety): blocked; also recorded: attenuates cocaine-induced anxiety
C57BL6/J wild type mice; propranolol 5 mg/kg i.p., saline instead of cocaine
  baseline EPM performance: no effect
Dbh +/- and Dbh -/- mice
  percent open arm time in EPM after cocaine (cocaine-induced anxiety): abolished; also recorded: differed significantly from the control group; also recorded: attenuates cocaine-induced anxiety
  percent open time in EPM, antagonist alone: no significant effect

## COC(=O)[C@@H]1[C@H]2C[C@H]3c4[nH]c5ccccc5c4CCN3C[C@@H]2CC[C@@H]1O [yohimbine]
Dbh +/- and Dbh -/- mice
  percent open arm time in EPM after cocaine (cocaine-induced anxiety): preserved; also recorded: did not
  percent open time in EPM, antagonist alone: no significant effect

## NCc1c[nH]c(=S)n1[C@H]1CCc2c(F)cc(F)cc2C1 [nepicastat, S-5-amino methyl-1-(5,7-difluoro-1,2,3,4-tetrahydronapthalyl)-1,3-dihydroimidazole-2-thione hydrochloride]
mice; prolonged (3 weeks) minipump treatment with 10 or 50 mg/kg/day, cocaine 10 mg/kg i.p., FIG. 8
  locomotion induced by cocaine: significantly increased
mice; single acute dose 50 mg/kg i.p., cocaine 20 mg/kg i.p., FIG. 9, hydrochloride
  cocaine-induced locomotion: did not significantly affect; also recorded: does not significantly affect

## COc1cc2nc(N3CCN(C(=O)c4ccco4)CC3)nc(N)c2cc1OC [prazosin]
Dbh +/- and Dbh -/- mice
  percent open arm time in EPM after cocaine (cocaine-induced anxiety): preserved; also recorded: did not
  percent open time in EPM, antagonist alone: no significant effect

## CCN(CC)C(=S)SSC(=S)N(CC)CC [disulfuram, tetraethylthiuram]
Animal models
  cocaine sensitization: enhances cocaine sensitization
  locomotor response to acute administration of amphetamine: decreases
  locomotor response to acute administration of cocaine: decreases
rats
  reinstatement of amphetamine self-administration: attenuates; also recorded: block
DBH [1]
  IC50 for DBH: low micromolar range
DBH [2]
  NE and its metabolites in urine, blood, and cerebrospinal fluid: decreases
DBH [3]
  decrease of NE in the mouse brain: ~70%
DBH [4]
  dopamine (DA) in peripheral and central tissues: increase dopamine (DA)
  norepinepherine (NE) in peripheral and central tissues: decrease norepinepherine (NE)
Dbh +/- and Dbh -/- mice
  percent open arm time in EPM after cocaine: attenuates cocaine-induced anxiety
Dbh +/- and Dbh -/- mice; listed as Disulfuram
  percent open arm time in EPM after cocaine: abolished the ability of cocaine to reduce open arm exploration time; also recorded: significantly increased level of open arm exploration
Dbh +/- and Dbh -/- mice; disulfuram 3x200 mg/kg i.p., saline prior to testing
  percent open arm time in EPM, saline instead of cocaine: no effect
mice; disulfuram via osmotic minipump 50 mg/kg/day for 2 to 3 weeks, cocaine 10 mg/kg, cocaine-naive animals
  locomotion induced by cocaine: decreased

## S=C(Nc1ccccc1)Nc1nccs1 [U-14,624]
rats
  reinstatement of amphetamine self-administration: block
